In US20220241260A9, “Pharmaceutical Compositions Of Metabotropic Glutamate 5 Receptor (MGLU5) Antagonists” (F. HOFFMANN-LA ROCHE AG, priority 2010, published 2022):

Assay: BCS classification
Assay type: physicochemical
Settings: because of pH dependent solubility in physiological range

With Cc1nc(C#Cc2ccnc(Cl)c2)c(C)n1-c1ccc(F)cc1 [2-Chloro-4-[1-(4-fluoro-phenyl)-2,5-dimethyl-1H-imidazol-4-ylethynyl]-pyridine] the BCS class was “BCS class 2”.
